# Results: US6613718B2, “Aryl ether derivatives and processes for their preparation and herbicidal and desiccant compositions containing them” (Ishihara Sangyo Kaisha, Ltd., priority 2001, dated 2003)
# What was measured:
# Type in all cases: in vivo
# Details in all cases: 14 days after application
# [1] = test system: barnyardgrass (Echinochloa crus-galli, ECHCG); assay: Pre-emerge greenhouse herbicide activity screening, phytotoxicity rating
# Text: (§1) A standard greenhouse herbicide activity screening system was used to evaluate the herbicidal efficacy and crop safety of these test compounds. Seven broadleaf weed species including redroot pigweed (Amaranthus retroflexus, AMARE), velvetleaf (Abutilon theophrasti, ABUTH), sicklepod (Cassia obtusifolia, CASOB), ivyleaf morningglory (Ipomoea hederacea, IPOHE), lambsquarters (Chenopodium album, CHEAL), common ragweed (Ambrosia artemisiifolia L., AMBEL), and cocklebur (Xanthium strumarium, XANST) were used as test species. Four grass weed species including green foxtail (Setaria viridis, SETVI), barnyardgrass (Echinochloa crus-galli, ECHCG), johnsongrass (Sorghum halepense, SORHA), and large crabgrass (Digitaria sanguinalis, DIGSA) were also used. In addition, three crop species, field corn (Zea mays L., var. Dekalb 535, CORN), soybean (Glycine max L., var. Pella 86, SOY), and upland rice (Oryza sp., var.Tebonnet, RICE) were included.
# (§2) All plants were grown in 10 cm square plastic pots which were filled with a sandy loam soil mix. For pre-emerge tests, seeds were planted one day prior to application of the test compounds. For post-emerge tests, seeds were planted 8-21 days prior to the test to allow emergence and good foliage development prior to application of the test substances. At the time of the post-emerge application, plants of all species were usually at the 2-3 leaf stage of development.
# (§3) All test compounds were dissolved in acetone and applied to the test units in a volume of 187 1/ha. Test materials were applied at rates ranging from 15 g ai/ha to 1000 g ai/ha using a track sprayer equipped with a TJ8001E even flow flat fan spray nozzle. Plants were arranged on a shelf so that the top of the canopy (post-emerge) or top of the soil surface (pre-emerge) was 40-45 cm below the nozzle. Pressurized air was used to force the test solution through the nozzle as it was mechanically advanced (via electrically driven chain drive) over the top of all test plants/pots. This application simulates a typical commercial field herbicide application.
# (§4) In the post-emerge test, a commercial non-ionic surfactant was also included (0.25% v/v) to enhance wetting of the leaf surfaces of target plants. Immediately after application, test units of the pre-emerge applications were watered at the soil surface to incorporate the test materials. Subsequently, these test units were bottom-watered. Post-emerge test units were always bottom-watered.
# (§5) At 14 days after application of the test materials, phytotoxicity ratings were recorded. A rating scale of 0-100 was used as previously described in Research Methods in Weed Science, 2nd edition, B. Truelove, Ed., Southern Weed Science Society, Auburn University, Auburn, Ala., 1977. Briefly, “0” corresponds to no damage and “100” corresponds to complete death of all plants in the test unit. This scale was used both to determine efficacy against weed species and damage to crop species. Herbicide activity data for various compounds of this invention, which are shown by compound No. in Tables I-VI, are shown in Tables VIII-IX.
# [2] = test system: velvetleaf (Abutilon theophrasti, ABUTH); assay: as above
# Text: as §1, §2, §3, §4, §5
# [3] = test system: large crabgrass (Digitaria sanguinalis, DIGSA); assay: as above
# Text: as §1, §2, §3, §4, §5
# [4] = test system: lambsquarters (Chenopodium album, CHEAL); assay: as above
# Text: as §1, §2, §3, §4, §5
# [5] = test system: sicklepod (Cassia obtusifolia, CASOB); assay: as above
# Text: as §1, §2, §3, §4, §5
# [6] = test system: common ragweed (Ambrosia artemisiifolia L., AMBEL); assay: as above
# Text: as §1, §2, §3, §4, §5
# [7] = test system: johnsongrass (Sorghum halepense, SORHA); assay: as above
# Text: as §1, §2, §3, §4, §5
# [8] = test system: redroot pigweed (Amaranthus retroflexus, AMARE); assay: as above
# Text: as §1, §2, §3, §4, §5
# [9] = test system: green foxtail (Setaria viridis, SETVI); assay: as above
# Text: as §1, §2, §3, §4, §5
# [10] = test system: ivyleaf morningglory (Ipomoea hederacea, IPOHE); assay: as above
# Text: as §1, §2, §3, §4, §5
# [11] = test system: field corn (Zea mays L., var. Dekalb 535, CORN); assay: Post-emerge greenhouse screening, crop safety / corn selectivity (phytotoxicity rating)
# Text: as §1, §2, §3, §4, §5
# [12] = test system: barnyardgrass (Echinochloa crus-galli, ECHCG); assay: Post-emerge greenhouse herbicide activity screening, phytotoxicity rating
# Text: as §1, §2, §3, §4, §5
# [13] = test system: velvetleaf (Abutilon theophrasti, ABUTH); assay: as above
# Text: as §1, §2, §3, §4, §5
# [14] = test system: large crabgrass (Digitaria sanguinalis, DIGSA); assay: as above
# Text: as §1, §2, §3, §4, §5
# [15] = test system: lambsquarters (Chenopodium album, CHEAL); assay: as above
# Text: as §1, §2, §3, §4, §5
# [16] = test system: sicklepod (Cassia obtusifolia, CASOB); assay: as above
# Text: as §1, §2, §3, §4, §5
# [17] = test system: common ragweed (Ambrosia artemisiifolia L., AMBEL); assay: as above
# Text: as §1, §2, §3, §4, §5
# [18] = test system: johnsongrass (Sorghum halepense, SORHA); assay: as above
# Text: as §1, §2, §3, §4, §5
# [19] = test system: redroot pigweed (Amaranthus retroflexus, AMARE); assay: as above
# Text: as §1, §2, §3, §4, §5
# [20] = test system: green foxtail (Setaria viridis, SETVI); assay: as above
# Text: as §1, §2, §3, §4, §5
# [21] = test system: ivyleaf morningglory (Ipomoea hederacea, IPOHE); assay: as above
# Text: as §1, §2, §3, §4, §5
# [22] = test system: field corn (Zea mays L., var. Dekalb 535, CORN); assay: Pre-emerge greenhouse screening, crop safety (phytotoxicity rating)
# Text: as §1, §2, §3, §4, §5
# [23] = test system: upland rice (Oryza sp., var.Tebonnet, RICE); assay: as above
# Text: as §1, §2, §3, §4, §5
# [24] = test system: soybean (Glycine max L., var. Pella 86, SOY); assay: as above
# Text: as §1, §2, §3, §4, §5
# [25] = test system: upland rice (Oryza sp., var.Tebonnet, RICE); assay: Post-emerge greenhouse screening, crop safety (phytotoxicity rating)
# Text: as §1, §2, §3, §4, §5
# [26] = test system: soybean (Glycine max L., var. Pella 86, SOY); assay: as above
# Text: as §1, §2, §3, §4, §5
smiles,measurement,setting,value
Cn1c(C(F)(F)F)cc(=O)n(-c2cc(Oc3ncccc3[N+](=O)[O-])c(Cl)cc2F)c1=S [Compound 1-9],ECHCG phytotoxicity rating (0-100 scale),[1]; 125 g ai/ha,95
same,ECHCG phytotoxicity rating (0-100 scale),[1]; 250 g ai/ha,99
same,ABUTH phytotoxicity rating (0-100 scale),[2]; 125 g ai/ha,100
same,ABUTH phytotoxicity rating (0-100 scale),[2]; 250 g ai/ha,100
same,DIGSA phytotoxicity rating (0-100 scale),[3]; 125 g ai/ha,98
same,DIGSA phytotoxicity rating (0-100 scale),[3]; 250 g ai/ha,99
same,CHEAL phytotoxicity rating (0-100 scale),[4]; 125 g ai/ha,100
same,CHEAL phytotoxicity rating (0-100 scale),[4]; 250 g ai/ha,100
same,CASOB phytotoxicity rating (0-100 scale),[5]; 125 g ai/ha,70
same,CASOB phytotoxicity rating (0-100 scale),[5]; 250 g ai/ha,99
same,AMBEL phytotoxicity rating (0-100 scale),[6]; 125 g ai/ha,99
same,AMBEL phytotoxicity rating (0-100 scale),[6]; 250 g ai/ha,100
same,SORHA phytotoxicity rating (0-100 scale),[7]; 125 g ai/ha,95
same,SORHA phytotoxicity rating (0-100 scale),[7]; 250 g ai/ha,99
same,AMARE phytotoxicity rating (0-100 scale),[8]; 125 g ai/ha,100
same,AMARE phytotoxicity rating (0-100 scale),[8]; 250 g ai/ha,100
same,SETVI phytotoxicity rating (0-100 scale),[9]; 125 g ai/ha,100
same,SETVI phytotoxicity rating (0-100 scale),[9]; 250 g ai/ha,100
same,IPOHE phytotoxicity rating (0-100 scale),[10]; 125 g ai/ha,100
same,IPOHE phytotoxicity rating (0-100 scale),[10]; 250 g ai/ha,100
same,"CORN crop damage, phytotoxicity rating (0-100 scale)",[11]; 125 g ai/ha,0
same,"CORN crop damage, phytotoxicity rating (0-100 scale)",[11]; 250 g ai/ha,3
same,ECHCG phytotoxicity rating (0-100 scale),[12]; 125 g ai/ha,50
same,ECHCG phytotoxicity rating (0-100 scale),[12]; 250 g ai/ha,65
same,ABUTH phytotoxicity rating (0-100 scale),[13]; 125 g ai/ha,100
same,ABUTH phytotoxicity rating (0-100 scale),[13]; 250 g ai/ha,100
same,DIGSA phytotoxicity rating (0-100 scale),[14]; 125 g ai/ha,50
same,DIGSA phytotoxicity rating (0-100 scale),[14]; 250 g ai/ha,60
same,CHEAL phytotoxicity rating (0-100 scale),[15]; 125 g ai/ha,100
same,CHEAL phytotoxicity rating (0-100 scale),[15]; 250 g ai/ha,100
same,CASOB phytotoxicity rating (0-100 scale),[16]; 125 g ai/ha,50
same,CASOB phytotoxicity rating (0-100 scale),[16]; 250 g ai/ha,65
same,AMBEL phytotoxicity rating (0-100 scale),[17]; 125 g ai/ha,70
same,AMBEL phytotoxicity rating (0-100 scale),[17]; 250 g ai/ha,70
same,SORHA phytotoxicity rating (0-100 scale),[18]; 125 g ai/ha,50
same,SORHA phytotoxicity rating (0-100 scale),[18]; 250 g ai/ha,50
same,AMARE phytotoxicity rating (0-100 scale),[19]; 125 g ai/ha,100
same,AMARE phytotoxicity rating (0-100 scale),[19]; 250 g ai/ha,100
same,SETVI phytotoxicity rating (0-100 scale),[20]; 125 g ai/ha,60
same,SETVI phytotoxicity rating (0-100 scale),[20]; 250 g ai/ha,70
same,IPOHE phytotoxicity rating (0-100 scale),[21]; 125 g ai/ha,100
same,IPOHE phytotoxicity rating (0-100 scale),[21]; 250 g ai/ha,100
same,"CORN crop damage, phytotoxicity rating (0-100 scale)",[22]; 125 g ai/ha,8
same,"CORN crop damage, phytotoxicity rating (0-100 scale)",[22]; 250 g ai/ha,8
same,"RICE crop damage, phytotoxicity rating (0-100 scale)",[23]; 125 g ai/ha,35
same,"RICE crop damage, phytotoxicity rating (0-100 scale)",[23]; 250 g ai/ha,35
same,"SOY crop damage, phytotoxicity rating (0-100 scale)",[24]; 125 g ai/ha,50
same,"SOY crop damage, phytotoxicity rating (0-100 scale)",[24]; 250 g ai/ha,50
same,"RICE crop damage, phytotoxicity rating (0-100 scale)",[25]; 125 g ai/ha,0
same,"RICE crop damage, phytotoxicity rating (0-100 scale)",[25]; 250 g ai/ha,0
same,"SOY crop damage, phytotoxicity rating (0-100 scale)",[26]; 125 g ai/ha,55
same,"SOY crop damage, phytotoxicity rating (0-100 scale)",[26]; 250 g ai/ha,80
